# Results reported in paper PMC5953424 (Nature chemical biology, 2014).
# Columns and labels:
# PME1 = molecular target: T1, PME1 (Homo sapiens, UniProt Q9Y570); assay: EnPlex assay; format: biochemical; details: FP-biotin 1 μM, <5 = >50% inhibition at lowest dose 5 nM
# T1 sequence (Q9Y570 1-386): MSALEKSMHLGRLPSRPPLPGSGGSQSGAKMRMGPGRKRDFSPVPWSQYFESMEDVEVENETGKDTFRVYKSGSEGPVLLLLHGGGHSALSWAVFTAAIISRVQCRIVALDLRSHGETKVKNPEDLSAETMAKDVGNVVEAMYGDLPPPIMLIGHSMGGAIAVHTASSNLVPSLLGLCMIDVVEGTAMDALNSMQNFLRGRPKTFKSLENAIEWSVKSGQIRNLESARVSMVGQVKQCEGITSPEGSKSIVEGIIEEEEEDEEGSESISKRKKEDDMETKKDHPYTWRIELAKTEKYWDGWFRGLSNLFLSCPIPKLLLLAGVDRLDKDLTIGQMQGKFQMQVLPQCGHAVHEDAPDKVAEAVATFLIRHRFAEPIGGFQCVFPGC
# [1] = Oral glucose tolerance test; format: in vivo, C57BL/6 mice; details: mice, oral gavage 1 h before dextrose 5 g/kg; listed as ARI-2243
# Adverse effects in mice = format: in vivo
SMILES,IC50 (PME1) [nM],Anti-hyperglycemic activity in oral glucose tolerance test [1],Adverse effects in mice (Adverse effects in mice)
COC(=O)N1C(=O)[C@](c2ccccc2)(C2CCCC2)N1C(=O)OC [ABL127],12,,
"CC(N)C(=S)N1CCCC1B(O)O (stereo not drawn) [Compound 24, Ala-boroPro thioxoamide]",,highly effective and essentially equal anti-hyperglycemic glycemic activity,no significant adverse effects
